Results from patent US10556865B2, “Synergistic herbicidal composition containing certain pyridine or pyrimidine carboxylic acids and certain cereal and rice herbicides” (Dow AgroSciences, LLC, priority 2007, dated 2020).

Legend:
Type in all cases: in vivo
[1] = tested on: Ipomoea hederacea (L.) JACQ. (IPOHE); experiment: Postemergence herbicidal mixtures for weed control in direct seeded rice (greenhouse, visual % injury after 3 weeks)
[2] = tested on: Cyperus esculentus L. (CYPES); experiment: Postemergence herbicidal mixtures for weed control in direct seeded rice (greenhouse, visual % injury)
[3] = tested on: Cyperus iria L. (CYPIR); experiment: as above
[4] = tested on: bird's-eye speedwell (Veronica persica L; VERPE); experiment: Postemergence herbicidal activity of mixtures in cereal crops (greenhouse, visual injury)
Description: (§1) The plants were grown for 7-36 days in a greenhouse with an approximate 14 hour photoperiod which was maintained at about 18° C. during the day and 17° C. during the night. Nutrients and water were added on a regular basis and supplemental lighting was provided with overhead metal halide 1000-Watt lamps as necessary. The plants were employed for testing when they reached the second or third true leaf stage.
(§2) Treatments consisted of compound (as listed in Tables 1 through 64) and a second cereal herbicide alone and in combination. […] Control plants were sprayed in the same manner with the solvent blank.
(§3) The treated plants and control plants were placed in a greenhouse as described above and watered by sub-irrigation to prevent wash-off of the test compounds. After 20-22 days, the condition of the test plants as compared with that of the control plants was determined visually and scored on a scale of 0 to 100 percent where 0 corresponds to no injury and 100 corresponds to complete kill.
(§4) The following equation was used to calculate the expected activity of mixtures containing two active ingredients, A and B: Expected=A+B−(A×B/100)

[5] = tested on: black mustard (Brassica nigra L; BRSNI); experiment: as above; conditions: Brassica, post-emergence, 35 g/ha alone; read-out: BRSNI Ob
Description: (§5) Seeds of the desired test plant species were planted in Sun Gro MetroMix® 306 planting mixture, which typically has a pH of 6.0 to 6.8 and an organic matter content of about 30 percent, in plastic pots with a surface area of 103.2 square centimeters (cm^2). When required to ensure good germination and healthy plants, a fungicide treatment and/or other chemical or physical treatment was applied. The plants were grown for 7-36 days in a greenhouse with an approximate 14 hour photoperiod which was maintained at about 18° C. during the day and 17° C. during the night. Nutrients and water were added on a regular basis and supplemental lighting was provided with overhead metal halide 1000-Watt lamps as necessary. The plants were employed for testing when they reached the second or third true leaf stage.
Treatments consisted of compound (as listed in Tables 1 through 64) and a second cereal herbicide alone and in combination. Weighed amounts of esters (methyl) or salts (TEA [triethylammonium], K [potassium]) of 4-amino-3-chloro -6-(4-chloro-2-fluoro-3-methoxyphenyl)pyridine-2-carboxylic acid (Compound A) or of 6-amino-5-chloro-2-(4-chloro-2-fluoro-3-methoxyphenyl)pyrimidine-4-carboxylic acid (Compound B), were placed in 25 milliliter (mL) glass vials and dissolved in a volume of 97:3 v/v acetone/DMSO to obtain 4.5 milligrams (mg) active ingredient (ai)/mL stock solutions. […] The concentrated stock solutions were diluted to 1.5 mg ai/mL with the addition of 2 volumes of an aqueous mixture containing acetone, water, isopropyl alcohol, DMSO, Agri-dex crop oil concentrate, and Triton® X-77 surfactant in a 64.7:26.0:6.7:2.0:0.7:0.01 v/v ratio. A dilution solution was prepared by mixing 1 volume of 97:3 v/v acetone/DMSO and 2 volumes of an aqueous mixture containing acetone, water, isopropyl alcohol, DMSO, Agri-dex crop oil concentrate, and Triton® X-77 surfactant in a 64.7:26.0:6.7:2.0:0.7:0.01 v/v ratio. Compound requirements are based upon a 12 mL application volume at a rate of 187 liters per hectare (L/ha). Spray solutions of the second cereal herbicide and experimental compound mixtures were prepared by adding the stock solutions to the appropriate amount of dilution solution to form 12 mL spray solution with active ingredients in two- and three-way combinations. Formulated compounds were applied to the plant material with an overhead Mandel track sprayer equipped with 8002E nozzles calibrated to deliver 187 L/ha over an application area of 0.503 square meters (m^2) at a spray height of 18 inches (43 cm) above average plant canopy. Control plants were sprayed in the same manner with the solvent blank.
as §3
(§6) Colby's equation was used to determine the herbicidal effects expected from the mixtures (Colby, S. R. 1967. Calculation of the synergistic and antagonistic response of herbicide combinations. Weeds 15:20-22.).
as §4

[6] = tested on: scented mayweed (Matricaria chamomila L; MATCH); experiment: as above; conditions: Matricaria, post-emergence, read-out: MATCH Ob
Description: as §1, §2, §3, §4

[7] = tested on: wild pansy (Viola tricolor L; VIOTR); experiment: as above; conditions: Viola tricolor, post-emergence, 31.25 g/ha alone; read-out: VIOTR Ob
Description: as §1, §2, §3, §4

[8] = tested on: Echinochloa species (ECHSS); experiment: Herbicidal mixtures for weed control in transplanted paddy rice (in-water application, visual % injury after 3 weeks); conditions: for % Injury ECHOR Ob: ECHOR = Echinocloa oryzoides
Description: Weed seeds or nutlets of the desired test plant species were planted in puddled soil (mud) prepared by mixing a non-sterilized mineral soil (28 percent silt, 18 percent clay, and 54 percent sand, with a pH of about 7.3 to 7.8 and an organic matter content of about 1.0 percent) and water at a ratio of 100 kilograms (kg) of soil to 19 L of water. The prepared mud was dispensed in 250 mL aliquots into 480 mL non-perforated plastic pots with a surface area of 91.6 square centimeters leaving a headspace of 3 centimeters in each pot. Rice seeds were planted in Sun Gro MetroMix® 306 planting mixture, which typically has a pH of 6.0 to 6.8 and an organic matter content of about 30 percent, in plastic plug trays. Seedlings at the second or third leaf stage of growth were transplanted into 650 mL of mud contained in 960 mL non-perforated plastic pots with a surface area of 91.6 cm^2 4 days prior to herbicide application. The paddy was created by filling the 3 centimeter headspace of the pots with water. When required to ensure good germination and healthy plants, a fungicide treatment and/or other chemical or physical treatment was applied. The plants were grown for 4-14 days in a greenhouse with an approximate 14 hr photoperiod which was maintained at about 29° C. during the day and 26° C. during the night. Nutrients were added as Osmocote (17:6:10, N:P:K+minor nutrients) at 2 g per cup. Water was added on a regular basis to maintain the paddy flood, and supplemental lighting was provided with overhead metal halide 1000-Watt lamps as necessary. The plants were employed for testing when they reached the second or third true leaf stage.
Treatments consisted of esters or salts of compound A, compound C, or compound D and various herbicidal components alone and in combination. For technical grade compounds, a weighed amount, determined by the highest rate to be tested, was placed in an individual 120 mL glass vial and was dissolved in 20 mL of acetone to obtain concentrated stock solutions. […] The concentrated stock solutions obtained were diluted with 20 mL of an aqueous mixture containing 2.5% Agri-dex crop oil concentrate (v/v). For formulated compounds, a measured amount, determined by the highest rate to be tested, was placed in an individual 120 mL glass vial and was dissolved in 20 mL of 2.5% (v/v) Agri-dex crop oil concentrate to obtain concentrated stock solutions. The concentrated stock solutions obtained were diluted with 20 mL of acetone. Applications were made by injecting an appropriate amount of the stock solution into the aqueous layer of the paddy. Control plants were treated in the same manner with the solvent blank. All treated plant material received the same concentration of acetone and crop oil concentrate.
Forms of compounds A, C, and D were applied on an acid equivalent basis. Other herbicidal components were applied on an active ingredient basis and included acetolactate synthase (ALS)-inhibiting herbicides penoxsulam (triazolopyrimidine chemical class) applied as Grasp SC, […] (sulfonylurea chemical class) applied as Sirius G, and bensulfuron-methyl (sulfonylurea chemical class) applied as Londax; acetyl CoA carboxylase (ACCase) inhibiting herbicides cyhalofop-butyl applied as Clincher G and fenoxaprop-p-ethyl applied as Ricestar HT; auxinic herbicide quinclorac applied as Facet 75 DF; phytoene desaturase inhibiting herbicide norflurazon; and p-hydroxyphenylpyruvate dioxygenase (HPPD) inhibiting herbicide sulcotrione applied as Mikado.
The treated plants and control plants were placed in a greenhouse as described above and water was added as needed to maintain a paddy flood. After 3 weeks the condition of the test plants as compared with that of the untreated plants was determined visually and scored on a scale of 0 to 100 percent where 0 corresponds to no injury and 100 corresponds to complete kill.

[9] = tested on: blackgrass (Alopecurus myosuroides L; ALOMY); experiment: Postemergence herbicidal activity of mixtures in cereal crops (greenhouse, visual injury 0-100 percent after 20-22 days)
Description: as §5, with “When required to ensure good germination and healthy plants, a fungicide treatment and/or other chemical or physical treatment was applied.” left out
(§7) Treatments consisted of compound (as listed in Tables 1 through 64) and a second cereal herbicide alone and in combination. […] The concentrated stock solutions were diluted to 1.5 mg ai/mL with the addition of 2 volumes of an aqueous mixture containing acetone, water, isopropyl alcohol, DMSO, Agri-dex crop oil concentrate, and Triton® X-77 surfactant in a 64.7:26.0:6.7:2.0:0.7:0.01 v/v ratio. A dilution solution was prepared by mixing 1 volume of 97:3 v/v acetone/DMSO and 2 volumes of an aqueous mixture containing acetone, water, isopropyl alcohol, DMSO, Agri-dex crop oil concentrate, and Triton® X-77 surfactant in a 64.7:26.0:6.7:2.0:0.7:0.01 v/v ratio. Compound requirements are based upon a 12 mL application volume at a rate of 187 liters per hectare (L/ha). […] Formulated compounds were applied to the plant material with an overhead Mandel track sprayer equipped with 8002E nozzles calibrated to deliver 187 L/ha over an application area of 0.503 square meters (m^2) at a spray height of 18 inches […] above average plant canopy. Control plants were sprayed in the same manner with the solvent blank.
as §3, §6, §4

[10] = tested on: annual ryegrass (Lolium multiflorum L; LOLMG); experiment: Postemergence herbicidal activity of mixtures in cereal crops (greenhouse, visual injury); conditions: 50 g/ha, Table 22
Description: as §5, with “When required to ensure good germination and healthy plants, a fungicide treatment and/or other chemical or physical treatment was applied.” left out
as §7, §3, §6, §4

[11] = tested on: littleseed Canarygrass (Phalaris minor L; PHAMI); experiment: as above
Description: as §5, with “When required to ensure good germination and healthy plants, a fungicide treatment and/or other chemical or physical treatment was applied.” left out
as §7, §3, §6, §4

[12] = tested on: windgrass (Apera spica-venti L; APESV); experiment: as above; conditions: Apera spica-venti, post-emergence, read-out: APESV Ob
Description: as §5, with “When required to ensure good germination and healthy plants, a fungicide treatment and/or other chemical or physical treatment was applied.” left out
as §7, §3, §6, §4

## COc1cc(OC)nc(Oc2cccc(Oc3nc(OC)cc(OC)n3)c2C(=O)O)n1 [Bispyribac-sodium]
[1]; alone 7 g/ha
  % Injury IPOHE Ob: 10%
[1]; alone 28 g/ha
  % Injury IPOHE Ob: 60%
[2]; alone 14 g/ha
  % Injury CYPES Ob: 0%
[2]; alone 28 g/ha
  % Injury CYPES Ob: 50%
[3]; alone 7 g/ha
  % Injury CYPIR Ob: 40%
[3]; alone 14 g/ha
  % Injury CYPIR Ob: 90%
[3]; alone 28 g/ha
  % Injury CYPIR Ob: 95%

## COc1nc(C)nc(NC(=O)NS(=O)(=O)c2ccccc2Cl)n1 [Chlorsulfuron, 2-chloro-N-[[(4-methoxy-6-methyl-1,3,5-triazin-2-yl)amino]carbonyl]benzenesulfonamide, reference compound]
[4]; 2.2 g/ha, Table 28
  VERPE Ob: 5%

## CCOc1c(Cl)ccc(-c2cc(N)c(Cl)c(C(=O)OC)n2)c1F [Compound D Methyl]
[3]; alone 8.75 g/ha
  % Injury CYPIR Ob: 50%
[3]; alone 35 g/ha
  % Injury CYPIR Ob: 80%

## COc1c(Cl)ccc(Cl)c1C(=O)O [Dicamba]
[5]
  pest or weed control at 35 g/ha: 50%
[4]; Veronica persica, post-emergence, 35 g/ha alone, read-out: VERPE Ob
  pest or weed control at 35 g/ha: 10%
[6]; 35 g/ha alone
  pest or weed control at 35 g/ha: 30%

## CC(Oc1ccc(Cl)cc1Cl)C(=O)O (stereo not drawn) [Dichlorprop]
[4]; Veronica persica, post-emergence, 140 g/ha alone, read-out: VERPE Ob
  pest or weed control at 140 g/ha: 20%
[6]; 140 g/ha alone
  pest or weed control at 140 g/ha: 10%

## CCC(C)(CC)c1cc(NC(=O)c2c(OC)cccc2OC)on1 [Isoxaben]
[4]; Veronica persica, post-emergence, 31.25 g/ha alone, read-out: VERPE Ob
  pest or weed control at 31.25 g/ha: 0%
[7]
  pest or weed control at 31.25 g/ha: 3%

## CCOC(=O)c1cnn(C)c1S(=O)(=O)NC(=O)Nc1nc(OC)cc(OC)n1 [Pyrazosulfuron-ethyl]
[8]; ECHCG, 5.25 g/ha alone
  % Injury Ob: 20%

## CS(=O)(=O)c1ccc(C(=O)C2C(=O)CCCC2=O)c(Cl)c1 [Sulcotrione]
[8]; Sulcotrione 70 g/ha alone (Compound A Methyl half)
  % Injury ECHOR Ob: 10%
[8]; Sulcotrione 70 g/ha alone (Compound A TEA half)
  % Injury ECHOR Ob: 10%

## CCON=C(CC)C1=C(O)CC(c2c(C)cc(C)cc2C)CC1=O (stereo not drawn) [Tralkoxydim, 2-[1-(ethoxyimino)propyl]-3-hydroxy-5-(2,4,6-trimethylphenyl)-2-cyclohexen-1-one, reference compound]
[9]; 25 g/ha, Table 6
  ALOMY Ob: 78%
[9]; 50 g/ha, Table 6
  ALOMY Ob: 70%
[9]; 50 g/ha, Table 22
  ALOMY Ob: 70%
[10]
  LOLMG Ob: 50%
[11]; 25 g/ha, Table 6
  PHAMI Ob: 35%
[11]; 50 g/ha, Table 6
  PHAMI Ob: 45%
[11]; 50 g/ha, Table 22
  PHAMI Ob: 30%
[12]
  pest or weed control at 50 g/ha: 75%

## CCN(CC)CC.O=C(O)COc1nc(Cl)c(Cl)cc1Cl [Triclopyr-TEA]
[2]; alone 140 g/ha
  % Injury CYPES Ob: 0%
[2]; alone 280 g/ha
  % Injury CYPES Ob: 0%
